Assay results: ChEMBL document CHEMBL5550205, “Discovery of a NCOA4 Degrader for Labile Iron-Dependent Ferroptosis Inhibition” (J Med Chem, 2024)
Calls of active or inactive are those of the source. The rule behind the calls is not given here. Residues, ends and D or L forms follow the SMILES beside them. *: point of attachment. Cbz = O=C(OCc1ccccc1)*

What was measured:
[1] = target: T1, von Hippel-Lindau disease tumor suppressor/Nuclear receptor coactivator 4 (Homo sapiens, UniProt P40337+Q13772); assay: PROTAC activity at NCOA4/VHL in human HeLa cells assessed as induction of NCOA4 degradation at 4 uM measured for 24 hrs by immunoprecipitation analysis; assay type: cell-based
T1 sequence (P40337 whole entry, looked up): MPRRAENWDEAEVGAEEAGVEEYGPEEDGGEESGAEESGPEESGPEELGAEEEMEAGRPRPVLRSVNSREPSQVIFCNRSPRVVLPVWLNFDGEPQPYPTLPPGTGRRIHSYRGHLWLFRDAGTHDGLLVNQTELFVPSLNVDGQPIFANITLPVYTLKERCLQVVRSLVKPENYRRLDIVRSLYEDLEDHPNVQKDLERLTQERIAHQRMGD
T1 sequence (Q13772 whole entry, looked up): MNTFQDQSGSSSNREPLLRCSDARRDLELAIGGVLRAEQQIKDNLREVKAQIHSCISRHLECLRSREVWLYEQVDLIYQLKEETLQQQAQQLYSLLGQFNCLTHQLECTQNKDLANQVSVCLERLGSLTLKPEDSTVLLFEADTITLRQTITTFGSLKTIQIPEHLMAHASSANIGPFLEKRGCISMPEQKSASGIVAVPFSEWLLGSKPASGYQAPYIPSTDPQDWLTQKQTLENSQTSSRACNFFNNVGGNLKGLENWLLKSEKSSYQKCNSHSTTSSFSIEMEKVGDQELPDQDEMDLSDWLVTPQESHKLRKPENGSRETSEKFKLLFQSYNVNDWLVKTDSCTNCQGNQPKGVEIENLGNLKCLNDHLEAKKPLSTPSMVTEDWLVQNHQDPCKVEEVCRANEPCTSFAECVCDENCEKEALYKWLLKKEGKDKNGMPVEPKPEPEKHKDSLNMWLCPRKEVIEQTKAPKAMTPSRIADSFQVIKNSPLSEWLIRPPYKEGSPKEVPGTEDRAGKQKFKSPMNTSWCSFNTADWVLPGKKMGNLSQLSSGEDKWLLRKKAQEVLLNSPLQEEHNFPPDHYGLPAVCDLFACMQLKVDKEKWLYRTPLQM

[2] = target: T1, von Hippel-Lindau disease tumor suppressor/Nuclear receptor coactivator 4; assay: PROTAC activity at NCOA4/VHL in human HeLa cells assessed as induction of NCOA4 degradation at 50 nM measured for 24 hrs by Western blot analysis; assay type: cell-based
[3] = system: AML12; assay: Protection against CCl4-induced ferroptosis in mouse AML12 cells assessed as cell viability; assay type: functional, cell-based

SMILES: CC(C)C[C@@H](C=O)NC(=O)[C@H](CC(C)C)NC(=O)[C@H](CC(C)C)NC(=O)OCc1ccccc1 (Cbz-Leu-Leu-Leu-aldehyde)
- Activity [1]: Active

SMILES: CN1CCN(c2ccc3nc(-c4cccc(N5CCc6cc(F)ccc6C5)c4)[nH]c3c2)CC1
- Activity [2]: Active

SMILES: CC(=O)N(O)CCCCCNC(=O)CCC(=O)N(O)CCCCCNC(=O)CCC(=O)N(O)CCCCCN [DEFEROXAMINE]
- EC50 [3]: 8.83 µM
